From PMC11981937 (Nature, 2025)
Several values for one entry are separate records, joined by “and”; a condition that tells them apart may be missing. Equal entries are not always repeated. Where two headings read alike, the source gives them in different places.

Experiments:
SARS-CoV-2 = format: in vivo, Syrian golden hamster; conditions: for Infectious virus in the lung (TCID50), Copy number, individual animal / Infectious virus in the lung (TCID50), Log 10, individual animal / Viral load (viral RNA) in the lung, Copy number, individual animal / Viral load (viral RNA) in the lung, Log 10, individual animal / Infectious virus in the lung (TCID50), average Log 10 / Infectious virus in the lung (TCID50), median Log 10 / Viral load (viral RNA) in the lung, average Log 10 / Viral load (viral RNA) in the lung, median Log 10: 250mg/kg/ BID; for Infectious virus in the lung (TCID50), average Log 10 / Infectious virus in the lung (TCID50), median Log 10 / Viral load (viral RNA) in the lung, average Log 10 / Viral load (viral RNA) in the lung, median Log 10: n=5
[1] = Post-exposure Syrian golden hamster model, body weight; conditions: in vivo
[2] = system: SARS-CoV-2 (USA-WA1/2020); parameters: species or system Syrian golden hamster; conditions: hamster, in vivo
SARS-CoV-2 B1 = format: in vivo, Syrian golden hamster; conditions: pre-exposure
[3] = format: in vivo, Syrian golden hamster; conditions: Molnupiravir 200 mpk BID, pre-exposure

For `CC(C)(C)[C@H](NC(=O)C(F)(F)F)C(=O)N1C[C@H]2[C@@H]([C@H]1C(=O)N[C@H](C#N)C[C@@H]1CCNC1=O)C2(C)C` [nirmatrelvir, reference compound], the “Infectious virus in the lung (TCID50), Copy number, individual animal” value (SARS-CoV-2; 10 h post exposure) was 2.74E+02 and 1.40E+02 and 3.86E+02, the “Infectious virus in the lung (TCID50), Log 10, individual animal” value (SARS-CoV-2; 10 h post exposure) was 2.44 Log 10 and 3.68 Log 10 and 2.14 Log 10 and 3.67 Log 10 and 2.59 Log 10 and the “Viral load (viral RNA) in the lung, Copy number, individual animal” value (from here on “Viral load … Copy number, individual animal”) (SARS-CoV-2; 10 h post exposure) was 3.26E+07 and 1.08E+07 and 4.11E+07 and 4.76E+07 and 5.79E+06. The “Viral load (viral RNA) in the lung, Log 10, individual animal” value (from here on “Viral load … Log 10, individual animal”) (SARS-CoV-2; 10 h post exposure) was 7.51 Log 10 and 7.03 Log 10 and 7.61 Log 10 and 7.68 Log 10 and 6.76 Log 10, the “Infectious virus in the lung (TCID50), average Log 10” value (SARS-CoV-2; 10 h post exposure) was 2.90 Log 10 and the “Infectious virus in the lung (TCID50), median Log 10” value (SARS-CoV-2; 10 h post exposure) was 2.59 Log 10. The “Viral load (viral RNA) in the lung, average Log 10” value (“Viral load … average Log 10” for short) (SARS-CoV-2; 10 h post exposure) was 7.32 Log 10, the “Viral load (viral RNA) in the lung, median Log 10” value (from here on “Viral load … median Log 10”) (SARS-CoV-2; 10 h post exposure) was 7.51 Log 10 and the “Infectious virus in the lung (TCID50), Copy number, individual animal” value (SARS-CoV-2; 24 h post exposure) was 3.74E+03 and 5.43E+02 and 1.15E+04 and 7.40E+03. The “Infectious virus in the lung (TCID50), Log 10, individual animal” value (SARS-CoV-2; 24 h post exposure) was 3.57 Log 10 and 2.74 Log 10 and 4.06 Log 10 and 3.67 Log 10 and 3.87 Log 10, the “Viral load … Copy number, individual animal” value (SARS-CoV-2; 24 h post exposure) was 4.02E+07 and 9.08E+07 and 1.10E+07 and 3.49E+07 and 2.71E+07 and the “Viral load … Log 10, individual animal” value (SARS-CoV-2; 24 h post exposure) was 7.60 Log 10 and 7.96 Log 10 and 7.04 Log 10 and 7.54 Log 10 and 7.43 Log 10. The “Infectious virus in the lung (TCID50), average Log 10” value (SARS-CoV-2; 24 h post exposure) was 3.58 Log 10, the “Infectious virus in the lung (TCID50), median Log 10” value (SARS-CoV-2; 24 h post exposure) was 3.67 Log 10 and the “Viral load … average Log 10” value (SARS-CoV-2; 24 h post exposure) was 7.52 Log 10. The “Viral load … median Log 10” value (SARS-CoV-2; 24 h post exposure) was 7.54 Log 10, the “Infectious virus in the lung (TCID50), Copy number, individual animal” value (SARS-CoV-2; 48 h post exposure) was 5.70E+02 and 4.90E+02 and 1.00E+02 and 6.63E+02 and 1.50E+03 and the “Infectious virus in the lung (TCID50), Log 10, individual animal” value (SARS-CoV-2; 48 h post exposure) was 2.76 Log 10 and 2.69 Log 10 and 2.00 Log 10 and 2.82 Log 10 and 3.17 Log 10. The “Viral load … Copy number, individual animal” value (SARS-CoV-2; 48 h post exposure) was 1.41E+08 and 2.05E+07 and 3.56E+08 and 4.63E+07 and 6.23E+07, the “Viral load … Log 10, individual animal” value (SARS-CoV-2; 48 h post exposure) was 8.15 Log 10 and 7.31 Log 10 and 8.55 Log 10 and 7.67 Log 10 and 7.79 Log 10 and the “Infectious virus in the lung (TCID50), average Log 10” value (SARS-CoV-2; 48 h post exposure) was 2.69 Log 10. The “Infectious virus in the lung (TCID50), median Log 10” value (SARS-CoV-2; 48 h post exposure) was 2.76 Log 10, the “Viral load … average Log 10” value (SARS-CoV-2; 48 h post exposure) was 7.89 Log 10 and the “Viral load … median Log 10” value (SARS-CoV-2; 48 h post exposure) was 7.79 Log 10. For the same compound, the “reduction of lung viral RNA load and infectious virus (in words)” value (SARS-CoV-2; post-exposure, 250 mg per kg BID) was “not significant”, the “Average body weight change (%) on day 4 compared to day 0” value [1] was -2.756% and -3.747% and -5.087% and the “Infectious SARS-CoV2 virus in the lung, Avg” value [2] was 4651963 PFU/g Lung. For the same compound, the “Infectious SARS-CoV2 virus in the lung, Log10, Avg” value [2] was 5.697 Log10 PFU/g Lung, the “SARS-CoV2 viral load (viral RNA) in the lung, Avg” value [2] was 46452968 RNA copies/mL and the “SARS-CoV2 viral load (viral RNA) in the lung, Log10, Avg” value [2] was 6.876 Log10 RNA copies/mL.

In the case of `CC(C)C(=O)OC[C@H]1O[C@@H](n2ccc(NO)nc2=O)[C@H](O)[C@@H]1O` [molnupiravir, reference compound], the “Histopathology score, average” value (SARS-CoV-2 B1; 200 mg/kg/ BID, n=5) is reported as 2.10, the “Histopathology score, median” value (SARS-CoV-2 B1; 200 mg/kg/ BID, n=5) is reported as 1.50 and the “Infectious virus in the lung (TCID50/mg), average Log 10” value (SARS-CoV-2 B1; 200 mg/kg/ BID, n=5) is reported as 4.54 Log 10. For the same compound, the “Infectious virus in the lung (TCID50/mg), median Log 10” value (SARS-CoV-2 B1; 200 mg/kg/ BID, n=5) was 4.21 Log 10, the “Viral load … average Log 10” value (SARS-CoV-2 B1; 200 mg/kg/ BID, n=5) was 9.78 Log 10 and the “Viral load … median Log 10” value (SARS-CoV-2 B1; 200 mg/kg/ BID, n=5) was 9.74 Log 10. The “Histopathology score, individual animal” value (SARS-CoV-2 B1; 200 mg/kg/ BID, 200 mg/kg) was 1.5 and 3, the “Infectious virus in the lung (TCID50/mg), Log 10, individual animal” value (SARS-CoV-2 B1; 200 mg/kg/ BID, 200 mg/kg) was 4.01 Log 10 and 3.36 Log 10 and 6.13 Log 10 and 4.21 Log 10 and 4.99 Log 10 and the “Infectious virus in the lung, individual animal” value (SARS-CoV-2 B1; 200 mg/kg/ BID, 200 mg/kg) was 10248.12 TCID50/mg and 2288.60 TCID50/mg and 1353038.68 TCID50/mg and 16040.54 TCID50/mg and 98821.18 TCID50/mg. The “Viral load … Copy number, individual animal” value (SARS-CoV-2 B1; 200 mg/kg/ BID, 200 mg/kg) was 5.44E+09 and 8.11E+09 and 8.53E+09 and 4.38E+09 and 4.90E+09, the “Viral load … Log 10, individual animal” value (SARS-CoV-2 B1; 200 mg/kg/ BID, 200 mg/kg) was 9.74 Log 10 and 9.91 Log 10 and 9.93 Log 10 and 9.64 Log 10 and 9.69 Log 10 and the “decline in antiviral parameters (in words)” value (SARS-CoV-2 B1; 300 mg per kg BID, reference) was “not significant”. For the same compound, the “% body weight change compared to day 0, Avg” value ([3]; day 4 vs day 0, group average) was 3.04% and the “% body weight change compared to day 0” value ([3]; day 4 vs day 0, individual animals) was 2.6% and 2.4% and 5% and 3% and 2.2%.
